According to US12065443B2, “Compounds and pharmaceutical compositions thereof for the treatment of diseases” (priority 2017, dated 2024):

Assays:
[1] = tested on: LPS triggered IL-10 secretion in monocyte-derived macrophages (MdM); experiment: MdM assay: LPS-triggered IL-10 (ELISA); format: cell-based, human; conditions: maximal fold change vs LPS only, median across assays
Protocol: This assay evaluates illustrative compounds of the invention for their inhibition of LPS-induced TNFα and LPS triggered IL-10 secretion in monocyte-derived macrophages.
PBMCs are isolated from human blood samples (buffycoats). The buffy coat is aseptically transferred into a 50 mL Falcon tube, and diluted 1/2 in PBS. Falcon tubes are filled with 20 mL Lymphoprep™, on top of which 25 mL of the buffy coat is carefully added, tubes are centrifuged for 35 min at 400 g in temperature controlled centrifuge, without brake, at 25° C. PBMCs are aspirated from the white interface layer between sample and Lymphoprep™. PBMCs are washed five times in PBS.
PBMCs are centrifuged at 300×g for 10 min and resuspended at a density of 1.0E07 cells/80 μL Miltenyi buffer (PBS, pH 7.4, 1% FBS, 2 mM EDTA).
Starting from this point of the protocol all steps are performed on ice. 20 μL of CD14+ micro-beads are added per 1.0E07 cells, the tube is mixed and incubated for 15 min in the fridge at 4° C. Cell suspension volume is adjusted to total volume of 100 mL using Miltenyi buffer, mixed gently and subsequently centrifuged for 10 min at 300× g. Supernantant is discarded and cell pellet is resuspended in 12 mL of Miltenyi buffer.
Four LS columns are placed in the MACS Separator (magnet) from Miltenyi Biotec, and are prewet by rinsing with 3 mL of MACS buffer per column. Three mL of cell suspension is added onto the column (max 1*10^8 of labelled cells/column), and columns are subsequently washed 3 times with 3 mL of Miltenyi buffer.
The columns are removed from the magnets, and 5 mL of Miltenyi buffer are added to the column to flush out the CD14+ fraction by pushing the plunger into the column. The flushed fractions are collected in a fresh 50 mL Falcon and volume is adjusted to 30 mL using Miltenyi buffer, cells are centrifuged for 10 min at 300× g. The obtained cell pellet is resuspended in 10 mL RPMI w/o FBS, and cell density is determined using a hematologic analyser (Sysmex XS-500i).
On day 10, MdMs are triggered and compound is added.
A compound dilution plate is made in 100% DMSO by 3-fold dilution of 10 mM stock solution. An intermediate dilution plate (10× final concentration) is made by diluting the compound dilution plate 50-fold in RPMI medium.
Medium is carefully removed from cell plates using multichannel pipette, and replaced by 80 μL fresh medium. 10 μL of the 10× final concentration compound is added to the cells and incubated for 1 hour at 37° C. before addition of trigger. No trigger conditions/trigger conditions are spiked with equal final DMSO concentrations of 0.2% DMSO. 10 μL of 10×LPS (final conc. 200 ng/mL) solution are added to all wells except for the ‘no trigger wells’ where 10 μL medium is added. Supernatant is collected after 2 h (IL-10 determination) and after 20 h (TNFα determination) of LPS triggering.
Plates are washed three times with PBST, where after 100 μL of Strep-HRP conjugate (0.5 μg/mL final concentration diluted in dilution buffer) is added. Plates are incubated in the dark, at 37° C. for 30 min. Plates are washed three times with PBST. […] 100 μL of substrate solution is added to each well and incubated until brilliant blue color develops. The reaction is stopped by adding 50 μL of 1 M H2SO4, after which absorbance is measured at 450 nm on the SpectraMax i3, Molecular Devices.
To quantify these inductions fold changes (FC) compared to ‘LPS only’ are calculated for each concentration tested and the maximal FC is calculated (IL-10 FCmax):
[formula] wherein ABS=Absorbance measured at 450 nm.
The median maximal FC for test compounds across two or more assays is reported (IL-10FCmax median).

SIK3 = molecular target: T1, SIK3 (Homo sapiens, UniProt Q9Y2K2); experiment: biochemical
T1 construct: purchased SignalChem S12-11G-100
Summary of the method: (§1)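 AMARA peptide phosphorylation by SIK1–3 is quantified through ^33P uptake from a labeled/unlabeled ATP blend. Staurosporine at 10 μM final defines full inhibition, 1% DMSO the uninhibited signal. Quench uses phosphoric acid; counting follows filter capture.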

SIK2 = molecular target: T2, SIK2 (Homo sapiens, UniProt Q9H0K1); experiment: biochemical; conditions: 33P radioactive SIK kinase assay, AMARA peptide, 10 μM ATP
T2 construct: purchased ThermoFisher Scientific PV4792
Summary of the method: as §1

SIK1 = molecular target: T3, SIK1 (Homo sapiens, UniProt P57059); experiment: biochemical; conditions: 33P radioactive SIK kinase assay, AMARA peptide, 10 μM ATP; read-out: SIK1 IC50
T3 construct: purchased Carna Biosciences 02-131
Summary of the method: as §1

[2] = tested on: LPS-induced TNFα secretion in monocyte-derived macrophages (MdM); experiment: MdM assay: LPS-triggered TNFα (ELISA); format: cell-based, human; conditions: Homo sapiens, Macrophage, LPS-triggered TNFα inhibition
Summary of the method: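 TNFα ELISA read on supernatants harvested 20 h after LPS (final 200 ng/mL) stimulation. Cells were day-10 macrophages derived from human blood CD14+ monocytes, exposed to 3-fold compound dilutions for 1 h at 37 °C beforehand, with DMSO held at 0.2%.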

T1 sequence (Q9Y2K2 whole entry): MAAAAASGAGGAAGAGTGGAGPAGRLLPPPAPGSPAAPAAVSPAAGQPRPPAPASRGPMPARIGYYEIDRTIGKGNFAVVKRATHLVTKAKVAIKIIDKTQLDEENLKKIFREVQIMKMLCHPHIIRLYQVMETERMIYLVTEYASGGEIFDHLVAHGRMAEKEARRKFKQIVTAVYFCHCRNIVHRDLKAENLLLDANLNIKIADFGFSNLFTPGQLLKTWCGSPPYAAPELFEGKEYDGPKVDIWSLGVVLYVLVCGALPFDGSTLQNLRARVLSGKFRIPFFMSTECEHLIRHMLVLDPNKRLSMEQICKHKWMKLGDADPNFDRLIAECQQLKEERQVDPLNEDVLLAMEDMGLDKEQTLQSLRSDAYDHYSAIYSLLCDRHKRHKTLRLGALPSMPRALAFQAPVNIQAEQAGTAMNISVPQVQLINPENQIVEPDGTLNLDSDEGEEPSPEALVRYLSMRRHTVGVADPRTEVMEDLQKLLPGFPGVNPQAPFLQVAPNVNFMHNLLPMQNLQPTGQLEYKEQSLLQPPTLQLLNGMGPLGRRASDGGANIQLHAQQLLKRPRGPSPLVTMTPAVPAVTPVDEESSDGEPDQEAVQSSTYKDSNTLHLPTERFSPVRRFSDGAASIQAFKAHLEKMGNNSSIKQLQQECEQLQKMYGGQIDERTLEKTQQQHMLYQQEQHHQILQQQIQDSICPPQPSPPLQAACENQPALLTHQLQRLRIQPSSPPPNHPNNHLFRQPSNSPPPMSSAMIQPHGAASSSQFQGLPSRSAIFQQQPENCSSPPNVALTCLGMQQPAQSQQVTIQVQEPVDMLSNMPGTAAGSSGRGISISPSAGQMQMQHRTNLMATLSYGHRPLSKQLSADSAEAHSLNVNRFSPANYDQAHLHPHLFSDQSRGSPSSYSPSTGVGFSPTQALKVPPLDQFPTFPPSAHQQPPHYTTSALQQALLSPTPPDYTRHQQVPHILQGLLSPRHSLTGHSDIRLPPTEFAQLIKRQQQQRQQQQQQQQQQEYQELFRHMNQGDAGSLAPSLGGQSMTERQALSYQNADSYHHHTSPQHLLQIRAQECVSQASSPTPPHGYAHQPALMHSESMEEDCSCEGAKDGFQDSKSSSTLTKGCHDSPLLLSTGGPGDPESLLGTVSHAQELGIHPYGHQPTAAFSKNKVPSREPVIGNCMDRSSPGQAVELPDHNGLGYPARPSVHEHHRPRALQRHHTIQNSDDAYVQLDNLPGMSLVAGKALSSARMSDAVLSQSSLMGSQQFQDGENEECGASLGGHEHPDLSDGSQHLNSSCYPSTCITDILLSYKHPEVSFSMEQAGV
T3 sequence (P57059 whole entry): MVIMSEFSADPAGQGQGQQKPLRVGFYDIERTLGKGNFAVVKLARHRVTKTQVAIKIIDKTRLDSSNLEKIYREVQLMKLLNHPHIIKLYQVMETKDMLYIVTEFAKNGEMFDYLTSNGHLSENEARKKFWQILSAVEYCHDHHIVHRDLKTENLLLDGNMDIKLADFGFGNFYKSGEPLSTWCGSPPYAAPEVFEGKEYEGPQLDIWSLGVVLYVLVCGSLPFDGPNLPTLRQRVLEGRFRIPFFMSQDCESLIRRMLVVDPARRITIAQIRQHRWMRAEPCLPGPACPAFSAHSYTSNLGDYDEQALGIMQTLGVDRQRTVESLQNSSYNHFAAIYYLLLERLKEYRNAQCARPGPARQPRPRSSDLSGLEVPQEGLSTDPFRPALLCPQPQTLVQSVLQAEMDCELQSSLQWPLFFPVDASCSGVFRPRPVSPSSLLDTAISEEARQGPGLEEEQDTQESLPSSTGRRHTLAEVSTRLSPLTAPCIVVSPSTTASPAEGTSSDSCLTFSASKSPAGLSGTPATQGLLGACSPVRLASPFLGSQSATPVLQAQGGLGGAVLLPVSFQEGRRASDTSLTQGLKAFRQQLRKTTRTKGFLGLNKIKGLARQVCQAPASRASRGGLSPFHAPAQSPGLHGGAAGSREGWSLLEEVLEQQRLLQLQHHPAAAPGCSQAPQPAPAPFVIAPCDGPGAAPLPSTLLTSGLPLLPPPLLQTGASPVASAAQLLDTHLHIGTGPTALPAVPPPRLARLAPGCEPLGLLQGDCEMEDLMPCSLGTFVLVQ
T2 sequence (Q9H0K1 whole entry): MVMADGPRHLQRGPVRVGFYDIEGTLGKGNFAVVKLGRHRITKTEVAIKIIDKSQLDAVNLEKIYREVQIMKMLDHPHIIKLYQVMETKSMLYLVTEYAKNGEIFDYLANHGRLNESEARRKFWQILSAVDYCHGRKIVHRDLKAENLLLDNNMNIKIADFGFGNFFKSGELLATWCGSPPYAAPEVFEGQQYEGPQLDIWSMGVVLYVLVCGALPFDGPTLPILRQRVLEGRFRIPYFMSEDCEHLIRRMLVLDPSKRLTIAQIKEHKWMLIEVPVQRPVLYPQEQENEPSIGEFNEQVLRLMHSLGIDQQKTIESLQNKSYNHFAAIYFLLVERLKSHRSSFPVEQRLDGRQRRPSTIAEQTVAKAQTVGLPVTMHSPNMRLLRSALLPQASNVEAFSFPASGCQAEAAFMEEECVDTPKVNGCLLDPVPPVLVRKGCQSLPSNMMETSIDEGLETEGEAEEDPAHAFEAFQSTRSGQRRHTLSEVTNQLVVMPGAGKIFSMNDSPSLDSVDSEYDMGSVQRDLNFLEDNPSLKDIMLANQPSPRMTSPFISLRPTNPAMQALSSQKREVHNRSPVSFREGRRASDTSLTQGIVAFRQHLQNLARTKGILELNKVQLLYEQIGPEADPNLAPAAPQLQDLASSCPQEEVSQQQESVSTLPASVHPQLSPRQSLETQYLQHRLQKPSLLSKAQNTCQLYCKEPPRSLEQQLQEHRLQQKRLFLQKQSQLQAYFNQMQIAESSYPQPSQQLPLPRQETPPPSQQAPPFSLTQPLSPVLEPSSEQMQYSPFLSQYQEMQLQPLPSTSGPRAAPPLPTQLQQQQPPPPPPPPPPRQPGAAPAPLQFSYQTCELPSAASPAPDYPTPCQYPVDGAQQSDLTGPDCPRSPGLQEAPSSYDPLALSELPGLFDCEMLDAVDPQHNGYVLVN

| SMILES | IL-10 FCmax median [1] | IC50 (SIK3) [nM] | IC50 (SIK2) [nM] | IC50 (SIK1) [nM] | EC50 [2] [nM] |
| --- | --- | --- | --- | --- | --- |
| COc1cc(-n2cnc3cc(-c4cnn(C5CCN(C)CC5)c4)ccc32)cc(OC)c1C(=O)NCC(F)(F)F [Cpd 46, 2,6-dimethoxy-4-[5-[1-(1-methyl-4-piperidyl)pyrazol-4-yl]benzimidazol-1-yl]-N-(2,2,2-trifluoroethyl)benzamide] | ++ (>1.5-4.5) | 0.01 to 10 | 0.01 to 10 | 0.01 to 10 | 0.1 to 100 |
| CCNC(=O)c1c(OC)cc(-c2cnc3cc(-c4cnn(C5CCN(C)CC5)c4)ccn23)cc1OC(F)F [compound 148, 2-(difluoromethoxy)-N-ethyl-6-methoxy-4-[7-[1-(1-methyl-4-piperidyl)pvrazol-4-yl]imidazo[1,2-a]pyridin-3-yl]benzamide] | ++ (>1.5-4.5) | 0.01 to 10 | 0.01 to 10 | 0.01 to 10 | 0.1 to 100 |
| CCNC(=O)c1c(OC)cc(-c2cnn3cc(-c4cnn(CC)c4)cnc23)cc1OC [compound 9, N-ethyl-4-[6-(1-ethylpyrazol-4-yl)pyrazolo[1,5-a]pyrimidin-3-yl]-2,6-dimethoxy-benzamide] | ++ (>1.5-4.5) | 10 to 100 | 10 to 100 | 10 to 100 | 100 to 1000 |
| COc1cc(-n2cnc3cc(-c4cnn(C)c4)ccc32)cc(OC(F)F)c1C(=O)NC1CC1 [Cpd 53, N-cyclopropyl-2-(difluoromethoxy)-6-methoxy-4-[5-(1-methylpyrazol-4-yl)benzimidazol-1-yl]benzamide] | ++ (>1.5-4.5) | – | – | – | – |
| CCn1cc(-c2cnc3c(-c4cc(OC)c(C(=O)NCC(F)(F)F)c(OC)c4)cnn3c2)cn1 [compound 20, 4-[6-(1-ethylpyrazol-4-yl)pyrazolo[1,5-a]pyrimidin-3-yl]-2,6-dimethoxy-N-(2,2,2-trifluoroethyl)benzamide] | ++ (>1.5-4.5) | 10 to 100 | 0.01 to 10 | 10 to 100 | 100 to 1000 |
| CCCNC(=O)c1c(OC)cc(-n2cnc3cc(-c4cnn(CC)c4)ccc32)cc1OC [compound 22, 4-[5-(1-ethylpyrazol-4-yl)benzimidazol-1-yl]-2,6-dimethoxy-N-propyl-benzamide] | ++ (>1.5-4.5) | – | – | – | 100 to 1000 |
| COc1cc(-c2cnc3cc(-c4cnn(C)c4)ccn23)cc(OC)c1C(=O)NCC(C)C [compound 129, N-isobutyl-2,6-dimethoxy-4-[7-(1-methylpvrazol-4-yl)imidazo[1,2-a]pyridin-3-yl]benzamide] | – | 0.01 to 10 | 0.01 to 10 | 10 to 100 | 100 to 1000 |
| CCOc1cncc(-c2ccn3c(-c4cc(OC)c(C(=O)NCC(F)(F)F)c(OC)c4)cnc3c2)c1 [compound 248, 4-[7-(5-ethoxy-3-pyridyl)imidazo[1,2-a]pyridin-3-yl]-2,6-dimethoxy-N-(2,2,2-trifluoroethyl)benzamide] | – | 0.01 to 10 | 0.01 to 10 | 10 to 100 | 0.1 to 100 |
| COc1cc(-n2cnc3cc(-c4cnn(C)c4)ccc32)cc(OC)c1C(=O)NCCN [compound 163, N-(2-aminoethyl)-2,6-dimethoxy-4-[5-(1-methylpyrazol-4-yl)benzimidazol-1-yl]benzamide] | – | 10 to 100 | 10 to 100 | 10 to 100 | > 5000 |
| CCNC(=O)c1c(OC)cc(-c2cnc3cc(-c4cnn(C5CCN(C(=O)OC(C)(C)C)CC5)c4)ccn23)cc1OC(F)F [compound 147, tert-butyl 4-[4-[3-[3-(difluoromethoxy)-4-(ethylcarbamoyl)-5-methoxy-phenyl]imidazo[1,2-a]pyridin-7-yl]pyrazol-1-yl]piperidine-1-carboxylate] | – | 0.01 to 10 | 0.01 to 10 | 0.01 to 10 | 0.1 to 100 |
| CCn1cc(-c2ccc3c(c2)ncn3-c2cc(OC)c(C(=O)NCCC(F)(F)F)c(OC)c2)cn1 [compound 44, 4-[5-(1-ethylpyrazol-4-yl)benzimidazol-1-yl]-2,6-dimethoxy-N-(3,3,3-trifluoropropyl)benzamide] | – | 10 to 100 | 10 to 100 | 10 to 100 | 100 to 1000 |
| COc1cc(-n2cnc3cc(-c4cnn(C)c4)ccc32)cc(OC)c1C(=O)NC1CC(F)(F)C1 [compound 125, N-(3,3-difluorocyclobutyl)-2,6-dimethoxy-4-[5-(1-methylpyrazol-4-yl)benzimidazol-1-yl]benzamide] | – | 10 to 100 | 10 to 100 | 10 to 100 | 100 to 1000 |
| COc1cc(-c2cnc3cc(-c4cnn(C)c4)ccn23)cc(OC)c1C(=O)N1CC(C)(C)C1 [compound 208, [2,6-dimethoxy-4-[7-(1-methylpyrazol-4-yl)imidazo[1,2-a]pyridin-3-yl]phenyl]-(3,3-dimethylazetidin-1-yl)methanone] | – | 0.01 to 10 | 0.01 to 10 | 0.01 to 10 | 100 to 1000 |
| COc1cc(-c2cnc3cc(-c4cnn(CCCC(=O)O)c4)ccn23)cc(OC)c1C(=O)NCC(F)(F)F [Cpd 255, 4-[4-[3-[3,5-dimethoxy-4-(2,2,2-trifluoroethyl-carbamoyl)phenyl]imidazo[1,2-a]pyridin-7-yl]pyrazol-1-yl]butanoic acid] | – | 0.01 to 10 | 0.01 to 10 | 0.01 to 10 | 1000 to 5000 |
| COc1cc(-c2cnc3cc(-c4cnn(CC(=O)OCCF)c4)ccn23)cc(OC)c1C(=O)NCC(F)(F)F [Cpd 235, 2-fluoroethyl 2-[4-[3-[3,5-dimethoxy-4-(2,2,2-trifluoroethyl-carbamoyl)phenyl]imidazo[1,2-a]pyridin-7-yl]pyrazol-1-yl]acetate] | – | 0.01 to 10 | 0.01 to 10 | 0.01 to 10 | 0.1 to 100 |
| C#CC1(O)CN(C(=O)c2c(OC)cc(-n3cnc4cc(-c5cnn(C)c5)ccc43)cc2OC)C1 [compound 221, [2,6-dimethoxy-4-[5-(1-methylpyrazol-4-yl)benzimidazol-1-yl]phenvl]-(3-ethynyl-3-hydroxy-azetidin-1-yl)methanone] | – | 10 to 100 | 10 to 100 | 10 to 100 | 100 to 1000 |
| COc1cc(-c2cnc3cc(-c4cnn(C)c4)ccn23)cc(O)c1C(=O)NCC(F)(F)F [Cpd 233, 2-hydroxy-6-methoxy-4-[7-(1-methylpyrazol-4-yl)imidazo[1,2-a]pvridin-3-yl]-N-(2,2,2-trifluoroethyl)benzamide] | – | 0.01 to 10 | 0.01 to 10 | 10 to 100 | 0.1 to 100 |
| CCNC(=O)c1c(OC)cc(-c2cnc3cc(-c4cnn(C(F)F)c4)ccn23)cc1OC(F)F [compound 151, 2-(difluoromethoxy)-4-[7-[1-(difluoromethyl)pyrazol-4-yl]imidazo[1,2-a]pyridin-3-yl]-N-ethyl-6-methoxy-benzamide] | – | 0.01 to 10 | 0.01 to 10 | 0.01 to 10 | 0.1 to 100 |
